Results taken from patent US20240385168A1, “SEMICONDUCTOR-BASED MEASUREMENT DEVICES” (CytoTronics, priority 2023, published 2024).
Entries after “also recorded” stand apart in the source; their conditions may differ.

How the values were obtained:
MDCK cells = assay: Live-cell impedance measurements of MDCK cells after compound treatment (water transport, doming); type: cell-based, canine
Protocol: (§1) Impedance measurements were performed with two different electric field configurations named vertical field (VF) and lateral field (LF) and at four different frequencies of 250 Hz, 1 kHz, 4 kHz, and 16 kHz, as shown in FIG. 27A. In total, 9 impedance parameter maps were measured per field configuration, including magnitude and phase for the 4 frequencies and a Direct Current (DC, 0 Hz) magnitude. […] Connections were observed between biological information and measurements at frequency magnitudes, phases, and DC.
(§2) To perform field-based impedance measurements across multiple frequencies, a voltage stimulation was applied which is the summation of the four different frequency signals and return currents were measured using a transimpedance amplifier (TIA) configuration with a feedback gain of 18 MΩ. The magnitudes of the AC voltage signals were scaled to create similar output amplitudes that were measured by the TIA configuration (0.2 V/250 Hz, 0.08 V/1 kHz, 0.04 V/4 kHz, and 0.02 V/16 kHz for lateral field, 0.25 V/250 Hz, 0.1 V/1 kHz, 0.04 V/4 kHz, and 0.025 V/16 kHz for vertical field). Six of the 96 wells were scanned at a time taking 2.5 s, resulting in a total scan time across the well plate of 40 s. A fast Fourier transform (FFT) was used to extract the magnitude and phase of each of the four frequencies and the DC component—9 impedance parameter maps for each field configuration.
(§3) A reference impedance map was used to determine the location of cells: a threshold was set above the electrodes' default impedance in solution, and the presence of a cell above an electrode then increased the impedance beyond the threshold for detection. Typically, the VF 4 kHz map provided the best contrast for generating the cell mask. For magnitude, phase, and DC, the median value of electrodes with cells was then calculated. An additional epoxy mask was calculated in a similar manner to remove electrodes which had spillover epoxy from well plate attachment. Before each cell plating, a reference measurement was taken in empty culture media to calculate the epoxy mask.
(§4) Transient features such as motility and migration were generated from impedance videos through a root-mean-square (RMS) calculation. The difference between two unmasked image frames was taken (the epoxy mask was still used if applicable), then the RMS calculation was performed across the pixels of the difference map. To normalize for changes in magnitude, the calculated RMS was then divided by the median value of the cell-masked well distribution. Typically, the VF 4 kHz map was used for the RMS signal generation.
(§5) Compound treatments were performed using a half media exchange. To prepare for compound addition, half the media from each well was removed. […]

[1] = test system: autosomal dominant polycystic kidney disease (ADPKD); settings: cited from earlier work
Caco-2 cells [2] = assay: Caco-2 impedance barrier function measurements (341 compound screen, dose response, Amonafide analogues); type: cell-based, human; settings: for change in Caco-2 barrier function at 12 hours post-compound application: 10 μM, versus control; for barrier increase (maximum VF 250 Hz) over the 48-hours: screen at 10 μM
Protocol: To execute and analyze the screens, cells were seeded on five CMOS 96-wellplates, allowed to grow for 24 hours for A549 or 48 hours for Caco-2, compounds were added at 10 μM in 1% DMSO via a half media swap using an OpenTrons liquid handling robot. Effects were measured for 48 hours, with impedance measurements taken every 15 minutes. The many field/frequency and calculated parameters were then normalized to a timepoint one hour before compound addition. The array of normalized parameters at timepoints logarithmically spaced from compound addition to +48 hours were then used for a principal component analysis (PCA) and unbiased clustering using the top 20 PCA dimensions.
Compound treatments were performed using a half media exchange. To prepare for compound addition, half the media from each well was removed. Compounds were prepared at 2× concentration in cell culture media, and the 2× compound solution was then added to the wells. Care was taken to keep DMSO concentration below 1%, compound dilutions were performed with a constant DMSO concentration. Compound in media was temperature- and CO2-equilibrated prior to addition. All compounds including the 341 compound library were obtained from Selleckchem Chemicals (Houston, TX). For the screening analysis, the pathway and target information provided by Selleckchem Chemicals was curated together.
In the second approach, rather than comparing 5 measurement parameters, all field and calculation parameters were used to perform an unbiased phenotypic profiling with a larger compound library. A total of 341 compounds were chosen as a sub-set of an FDA approved library and applied on two cell types, A549 and Caco-2. At least two compounds per target were chosen for conserved phenotype effects. For the screens, compounds were added 24 or 48 hours post cell seeding and measured up to 48 hours after the compound addition. Time normalization, a principal component analysis (PCA), and unbiased clustering were sequentially performed on the high-dimensional data readouts (VF & LF magnitudes, phase, and DC). This unbiased approach ensured compound separation based solely on functional and morphological effects of the cells, with no bias of the targets/pathways of the compounds.

ZO-1 in Caco-2 cells = assay: Immunofluorescence imaging and quantification of ZO-1 in Caco-2 cells; type: cell-based, human; settings: 48 hours post-compound treatment
Protocol: For immunofluorescence imaging, cells were grown on coverslips and then either allowed to grow for 48 hours or treated with relevant compounds for 48 hours. Cells were then fixed in 4% paraformaldehyde, washed, permeabilized with 0.5% Triton-X 100 in PBS, and then subjected to antibody incubation. Antibodies used were anti-E-Cadherin (obtained from Cell Signaling Technology, Danvers, MA, as cat no: 3195T), anti-ZO1 (obtained from Thermo Fisher, Waltham, MA, as cat no:617300) and anti-Occludin (obtained from Thermo Fisher as cat no: 331500). Alexa Fluor 488 and 568 secondary antibodies were used. Coverslips were mounted in Vectashield® antifade mounting medium with DAPI.
Imaging was performed using a Yokogawa Wi spinning disk confocal on an inverted Nikon Ti fluorescence microscope equipped with Hamamatsu ORCA-Fusion BT CMOS camera (6.5 μm^2 photodiode), Lumencor SOLA fluorescence light source, and Nikon LUN-F XL solid state laser combiner: 405 nm (80 mW), 445 nm (35 mW), 488 nm (80 mW), 514 nm (50 mW), 561 nm (65 mW), and 640 nm (60 mW). For imaging, the widefield modality of the microscope was typically used, and all imaging was done using a 20× objective. Acquisition was performed using consistent exposure across samples to enable intensity quantification. Images were processed using the open source image processing software FIJI.
Quantification of ZO-1 in the cell-membrane and nucleus was performed by manually defining ROIs for the cell membrane and nucleus. Mean integrated intensity was calculated within the ROI. All quantification was performed in raw, unprocessed images.

Caco-2 cells [3] = assay: Caco-2 impedance barrier function measurements (341 compound screen, dose response, Amonafide analogues); type: cell-based, human; settings: dose response 1 nM to 10 μM
many cell types = assay: Vertical field (VF) impedance across many cell types; type: cell-based
Protocol: as §1, §2

MDA-MB-231 cells = assay: Live-cell impedance measurements of MDA-MB-231 cells after compound treatment; type: cell-based, human
Protocol: as §1, §2, §3, §4, §5

In the case of `COc1cc(Nc2ncc3c(n2)-c2ccc(Cl)cc2C(c2c(F)cccc2OC)=NC3)ccc1C(=O)O` [Alisertib], the cell surface attachment (MDCK cells) is reported as “sharp decrease”, the transepithelial water transport (MDCK cells) is reported as “accelerated” and the “domes (doming)” value (MDCK cells; Alisertib 1 μM, Bosutinib 10 μM) is reported as “increased doming; also recorded: Domes were only observed”. For the same compound, the “water transport detachment (LF 16 kHz) with respect to the control” value (MDCK cells; mean±s.d. for 3 wells) was “accelerated” and the “ADPKD in animal models” value [1] was “exacerbate”.
In the case of `CN(C)CCN1C(=O)c2cccc3cc(N)cc(c23)C1=O` [Amonafide], the “change in Caco-2 barrier function at 12 hours post-compound application” value (“change in Caco-2 barrier function” for short) (Caco-2 cells [2]) is reported as “rapid increase in barrier”, the “barrier increase (maximum VF 250 Hz) over the 48-hours” value (Caco-2 cells [2]) is reported as “largest barrier increase; also recorded: highest observed increase in barrier” and the “ZO-1 levels and distribution (membrane, nucleus)” value (from here on “ZO-1 levels and distribution”) (ZO-1 in Caco-2 cells) is reported as “increase in membrane ZO-1 levels, with additional nuclear localization; also recorded: Significant increases in ZO-1 in the membrane and nucleus”. The “time course of barrier increase” value (Caco-2 cells [3]) was “rapid increase in barrier; also recorded: rapid and sustained increase”.
In the case of `COc1ccc(C[C@H]2NC[C@H](O)[C@H]2OC(C)=O)cc1` [Anisomycin], the “VF (vertical field impedance)” value (many cell types) is reported as “increases in VF”.
In the case of `Cc1cc(C2CCCCC2)n(O)c(=O)c1` [Ciclopirox], the “barrier increase (maximum VF 250 Hz) over the 48-hours” value (Caco-2 cells [2]) is reported as “largest barrier increase; also recorded: increased the barrier; also recorded: highest observed increase in barrier”, the “ZO-1 levels and distribution” value (ZO-1 in Caco-2 cells) is reported as “did not affect ZO-1 distribution or expression” and the “time course of barrier increase” value (Caco-2 cells [3]) is reported as “more gradual increase in barrier”.
In the case of `C=C1[C@@H](C)[C@H]2[C@H](Cc3ccccc3)NC(=O)[C@]23[C@H](OC(C)=O)/C=C/[C@@](C)(O)C(=O)[C@@H](C)C/C=C/[C@H]3[C@@H]1O` [Cytochalasin D], the attachment (MDA-MB-231 cells) is reported as “decreased”, the “concentration giving immediate cell size decrease” value (MDA-MB-231 cells) is reported as ≥ 0.2 µM and the “concentration giving subsequent cell size increase” value (MDA-MB-231 cells) is reported as ≥ 1 µM. For the same compound, the “motility (RMS)” value (MDA-MB-231 cells) was “decrease”.
With `CCN(CC)CCN1C(=O)c2cccc3cc(N)cc(c23)C1=O` [NSC 308848] the “change in Caco-2 barrier function” value (Caco-2 cells [2]) was “rapid increase in barrier” and the “ZO-1 levels and distribution” value (ZO-1 in Caco-2 cells) was “Significant increases in ZO-1 in the membrane and nucleus”.
In the case of `CN(C)CCN1C(=O)c2cccc3cc(NC(N)=O)cc(c23)C1=O` [UNBS5162], the “change in Caco-2 barrier function” value (Caco-2 cells [2]) is reported as “did not affect the barrier” and the “ZO-1 levels and distribution” value (ZO-1 in Caco-2 cells) is reported as “did not affect ZO-1 levels or distribution”.
